Laboratory results from patent US20260092076A1, “NOVEL COMPOUNDS” (Hoffmann-La Roche Inc., priority 2023, published 2026).

Columns and labels:
[1] = biological target: T1, NLRP3 (Homo sapiens, UniProt Q96P20); experiment: Human whole blood IL-1β release assay; type: cell-based; settings: human whole blood with 1 μg/ml LPS, compound 3 hours, nigericin 10 μM 1 hr, IL-1β by AlphaLisa
Experimental: For systemic delivery, the ability to inhibit NLRP3 when the compounds are present within the bloodstream is of great importance. For this reason, the NLRP3 inhibitory activity of a number of compounds in human whole blood was investigated in accordance with the following protocol. • Human whole blood in Li-heparin tubes was obtained from healthy donors from a volunteer donor panel. • Plate out 80 μl of whole blood containing 1 μg/ml of LPS in 96-well, clear bottom cell culture plate (Corning #3585) • Add 10 μl compound (8 points half-log dilution with 10 μM top dose) or vehicle (DMSO 0.1% FAC) to the appropriate wells • Incubate for 3 hours at 37° C., 5% CO2 • Add 10 μl nigericin (Sigma #N7143) (10 μM FAC) to all wells • Incubate for 1 hr at 37° C., 5% CO2 • At the end of the incubation period, spin plates at 300×g for 5 mins to pellet cells and remove 20 μl of supernatant and add to 96-well v-bottom plates for IL-1β analysis (note: these plates containing the supernatants can be stored at −80° C. to be analysed at a later date) • IL-1β was measured according to the manufacturer protocol (Perkin Elmer-AlphaLisa IL-1 Kit AL220F-5000) • IC50 data is fitted to a non-linear regression equation (log inhibitor vs response-variable slope 4-parameters)

[2] = biological target: T1, NLRP3; experiment: THP-1 cells pyroptosis assay; type: cell-based; set-up: Seed THP-1 cells (25,000 cells/well) containing 1.0 μg/ml LPS in 40 μl of RPMI medium; host or cells: THP-1 cells, LPS-primed, nigericin-stimulated; settings: THP-1 cells with 1.0 μg/ml LPS, compound 3 hours, nigericin 5 μM 1 hr, resazurin readout
Experimental: THP-1 cells (ATCC #TIB-202) were grown in RPMI containing L-glutamine (Gibco #11835) supplemented with 1 mM sodium pyruvate (Sigma #S8636) and penicillin (100 units/ml)/streptomycin (0.1 mg/ml) (Sigma #P4333) in 10% Fetal Bovine Serum (FBS) (Sigma #F0804). The cells were routinely passaged and grown to confluency (˜10^6 cells/ml). On the day of the experiment, THP-1 cells were harvested and resuspended into RPMI medium (without FBS). The cells were then counted and viability (>90%) checked by Trypan blue (Sigma #T8154). Appropriate dilutions were made to give a concentration of 625,000 cells/ml. To this diluted cell solution was added LPS (Sigma #L4524) to give a 1 μg/ml Final Assay Concentration (FAC). 40 μl of the final preparation was aliquoted into each well of a 96-well plate. The plate thus prepared was used for compound screening.
The following method step-by-step assay was followed for compound screening. • Seed THP-1 cells (25,000 cells/well) containing 1.0 μg/ml LPS in 40 μl of RPMI medium (without FBS) in 96-well, black walled, clear bottom cell culture plates coated with poly-D-lysine (VWR #734-0317) • Add 5 μl compound (8 points half-log dilution, with 10 μM top dose) or vehicle (DMSO 0.1% FAC) to the appropriate wells • Incubate for 3 hours at 37° C., 5% CO2 • Add 5 μl nigericin (Sigma #N7143) (FAC 5 μM) to all wells • Incubate for 1 hr at 37° C., 5% CO2 • At the end of the incubation period, spin plates at 300×g for 3 mins and remove supernatant • Then add 50 μl of resazurin (Sigma #R7017) (FAC 100 μM resazurin in RPMI medium without FBS) and incubate plates for a further 1-2 hours at 37° C. and 5% CO2 • Plates were read in an Envision reader at Ex 560 nm and Em 590 nm • IC50 data is fitted to a non-linear regression equation (log inhibitor vs response-variable slope 4-parameters)

T1 sequence (Q96P20 whole entry): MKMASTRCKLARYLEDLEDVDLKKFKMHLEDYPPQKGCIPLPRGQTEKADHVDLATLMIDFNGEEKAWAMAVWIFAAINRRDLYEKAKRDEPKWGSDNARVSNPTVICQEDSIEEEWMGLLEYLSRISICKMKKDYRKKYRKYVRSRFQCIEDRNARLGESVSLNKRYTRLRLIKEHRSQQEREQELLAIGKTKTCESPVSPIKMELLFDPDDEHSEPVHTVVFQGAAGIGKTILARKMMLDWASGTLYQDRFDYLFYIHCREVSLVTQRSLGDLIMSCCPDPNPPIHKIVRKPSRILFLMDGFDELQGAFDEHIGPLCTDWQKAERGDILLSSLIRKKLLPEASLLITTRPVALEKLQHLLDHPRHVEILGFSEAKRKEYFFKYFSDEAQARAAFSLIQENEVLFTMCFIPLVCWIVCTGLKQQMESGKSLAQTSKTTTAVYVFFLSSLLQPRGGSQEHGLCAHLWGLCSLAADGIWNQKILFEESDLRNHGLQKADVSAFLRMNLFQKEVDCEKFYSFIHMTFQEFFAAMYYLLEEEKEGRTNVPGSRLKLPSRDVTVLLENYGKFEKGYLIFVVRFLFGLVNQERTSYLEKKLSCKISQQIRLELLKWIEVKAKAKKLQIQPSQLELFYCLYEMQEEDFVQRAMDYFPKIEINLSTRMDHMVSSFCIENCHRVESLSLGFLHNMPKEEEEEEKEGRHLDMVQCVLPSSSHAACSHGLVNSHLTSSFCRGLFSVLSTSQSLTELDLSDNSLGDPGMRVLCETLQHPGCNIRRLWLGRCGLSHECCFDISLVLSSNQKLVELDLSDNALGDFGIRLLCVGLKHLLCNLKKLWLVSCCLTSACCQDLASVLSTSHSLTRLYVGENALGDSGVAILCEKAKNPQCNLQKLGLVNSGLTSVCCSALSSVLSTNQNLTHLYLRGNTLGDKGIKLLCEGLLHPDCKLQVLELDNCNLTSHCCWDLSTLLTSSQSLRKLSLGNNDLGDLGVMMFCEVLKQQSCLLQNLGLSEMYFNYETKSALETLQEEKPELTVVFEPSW

IC50 [1]	IC50 [2]	SMILES
1450 nM	4.2 nM	Cc1cc(C(F)(F)F)cc(O)c1-c1ccc2oc(N3Cc4ccc(=O)[nH]c4C3)nc2n1 [Example 20, 6-[5-[2-Hydroxy-6-methyl-4-(trifluoromethyl)phenyl]oxazolo[4,5-b]pyridin-2-yl]-5,7-dihydro-1H-pyrrolo[3,4-b]pyridin-2-one]
1960 nM	22.3 nM	Cc1cc(C(F)(F)F)cc(O)c1-c1ccc2oc(N3Cc4ccc(=O)n(C)c4C3)nc2n1 [Example 21, 6-[5-[2-Hydroxy-6-methyl-4-(trifluoromethyl)phenyl]oxazolo[4,5-b]pyridin-2-yl]-1-methyl-5,7-dihydropyrrolo[3,4-b]pyridin-2-one]
166 nM	46.7 nM	Cc1cc(C(F)F)cc(O)c1-c1ccc2oc(N3CCc4ncncc4C3)nc2n1 [Example 26, 5-(Difluoromethyl)-2-[2-(7,8-dihydro-5H-pyrido[4,3-d]pyrimidin-6-yl)oxazolo[4,5-b]pyridin-5-yl]-3-methyl-phenol]
35.9 nM	2.1 nM	Cc1cc(Cl)cc(O)c1-c1cnc2oc(N3Cc4ccncc4C3)nc2n1 [Example 29, 5-Chloro-2-[2-(1,3-dihydropyrrolo[3,4-c]pyridin-2-yl)oxazolo[4,5-b]pyrazin-5-yl]-3-methyl-phenol; formic acid]
326 nM	24.8 nM	OCc1cc(Cl)cc(O)c1-c1cnc2oc(N3Cc4ccncc4C3)nc2n1 [Example 30, 5-Chloro-2-[2-(1,3-dihydropyrrolo[3,4-c]pyridin-2-yl)oxazolo[4,5-b]pyrazin-5-yl]-3-(hydroxymethyl)phenol]
285 nM	24.9 nM	COc1ncc2c(n1)CCN(c1nc3nc(-c4c(C)cc(Cl)cc4O)ccc3o1)C2 [Example 32, 5-Chloro-2-[2-(2-methoxy-7,8-dihydro-5H-pyrido[4,3-d]pyrimidin-6-yl)oxazolo[4,5-b]pyridin-5-yl]-3-methyl-phenol]
168 nM	46.3 nM	Cc1cc(Cl)cc(O)c1-c1ccc2oc(N3CCc4[nH]c(=O)ncc4C3)nc2n1 [Example 36, 6-[5-(4-Chloro-2-hydroxy-6-methyl-phenyl)oxazolo[4,5-b]pyridin-2-yl]-1,5,7,8-tetrahydropyrido[4,3-d]pyrimidin-2-one]
676 nM	71.1 nM	Cc1cc(Cl)cc(O)c1-c1ccc2oc(N3CCc4[nH]c(=O)ccc4C3)nc2n1 [Example 37, 6-[5-(4-Chloro-2-hydroxy-6-methyl-phenyl)oxazolo[4,5-b]pyridin-2-yl]-1,5,7,8-tetrahydro-1,6-naphthyridin-2-one]

The remaining lines, values behind:

SMILES	IC50 [1]	IC50 [2]
Cc1cc(C(F)(F)F)cc(O)c1-c1ccc2oc(N3Cc4cncnc4C3)nc2n1 [Example 18, 2-[2-(5,7-Dihydropyrrolo[3,4-d]pyrimidin-6-yl)oxazolo[4,5-b]pyridin-5-yl]-3-methyl-5-(trifluoromethyl)phenol]	2350 nM	6.9 nM
Cc1cc(C(F)(F)F)cc(O)c1-c1ccc2oc(N3CCc4cc(=O)[nH]cc4C3)nc2n1 [Example 19, 7-[5-[2-Hydroxy-6-methyl-4-(trifluoromethyl)phenyl]oxazolo[4,5-b]pyridin-2-yl]-2,5,6,8-tetrahydro-2,7-naphthyridin-3-one]	962 nM	11.1 nM
Cc1cc(C(F)(F)F)cc(O)c1-c1ccc2oc(N3Cc4cc(=O)n(C)nc4C3)nc2n1 [Example 22, 6-[5-[2-Hydroxy-6-methyl-4-(trifluoromethyl)phenyl]oxazolo[4,5-b]pyridin-2-yl]-2-methyl-5,7-dihydropyrrolo[3,4-c]pyridazin-3-one]	≥ 10000 nM	20.7 nM
Cc1cc(C(F)(F)F)cc(O)c1-c1ccc2oc(N3CCc4ncncc4C3)nc2n1 [Example 24, 2-[2-(7,8-Dihydro-5H-pyrido[4,3-d]pyrimidin-6-yl)oxazolo[4,5-b]pyridin-5-yl]-3-methyl-5-(trifluoromethyl)phenol]	192 nM	23.6 nM
Cc1cc(Cl)cc(O)c1-c1ccc2oc(N3CCc4n[nH]cc4C3)nc2n1 [Example 25, 5-Chloro-3-methyl-2-[2-(2,4,6,7-tetrahydropyrazolo[4,3-c]pyridin-5-yl)oxazolo[4,5-b]pyridin-5-yl]phenol]	142 nM	25.6 nM
Cc1cc(Cl)cc(O)c1-c1ccc2oc(N3CCc4cc(=O)[nH]cc4C3)nc2n1 [Example 27, 7-[5-(4-Chloro-2-hydroxy-6-methyl-phenyl)oxazolo[4,5-b]pyridin-2-yl]-2,5,6,8-tetrahydro-2,7-naphthyridin-3-one]	423 nM	52.2 nM
Cc1cc(Cl)cc(O)c1-c1ccc2oc(N3CCc4ncncc4C3)nc2n1 [Example 31, 5-Chloro-2-[2-(7,8-dihydro-5H-pyrido[4,3-d]pyrimidin-6-yl)oxazolo[4,5-b]pyridin-5-yl]-3-methyl-phenol]	345 nM	17.9 nM
Cc1cc(Cl)cc(O)c1-c1ccc2oc(N3Cc4cc(=O)[nH]nc4C3)nc2n1 [Example 38, 6-[5-(4-chloro-2-hydroxy-6-methyl-phenyl)oxazolo[4,5-b]pyridin-2-yl]-5,7-dihydro-2H-pyrrolo[3,4-c]pyridazin-3-one]	168 nM	22 nM
Cc1cc(C(F)(F)F)cc(O)c1-c1cnc2oc(N3Cc4cnc(O)cc4C3)nc2n1 [Example 43, 2-[5-[2-Hydroxy-6-methyl-4-(trifluoromethyl)phenyl]oxazolo[4,5-b]pyrazin-2-yl]-1,3-dihydropyrrolo[3,4-c]pyridin-6-ol; 2,2,2-trifluoroacetic acid]	128 nM	1.7 nM
